Our source for the MIC values is US11180504B2 (ORCHID PHARMA LTD., priority 2016, dated 2021).

In brackets after ≈: the same amount, converted by molar mass.

The test system of test [1] is carbapenem sensitive Escherichia coli. As to the kind of experiment: MIC by broth micro-dilution (CLSI), carbapenem sensitive E. coli. The class given is cell-based. The note with it: Escherichia coli, ATCC25922, ESBL −ve E. coli ATCC25922; read-out: MIC.
The subject of test [2] is carbapenemase producing K. pneumoniae. The test is described as follows: MIC by broth micro-dilution (CLSI), carbapenemase producing K. pneumoniae. The class given is cell-based, Klebsiella pneumoniae. The settings on record: Klebsiella pneumoniae, ATCCBAA1705, KPC-2 K. pneumoniae ATCC BAA-1705; read-out: MIC.
For test [3], the system named is methicillin-sensitive Staphylococcus aureus. As to the kind of experiment: MIC by broth micro-dilution (CLSI), methicillin-sensitive S. aureus. The format is cell-based. The settings on record: Staphylococcus aureus, ATCC 29213 / MSSA, MSSA S. aureus ATCC29213; read-out: MIC.
Test [4] has as its system carbapenem sensitive Pseudomonas aeruginosa. As to the kind of experiment: MIC by broth micro-dilution (CLSI), carbapenem sensitive P. aeruginosa. The note with it: Pseudomonas aeruginosa, ATCC27853, Meropenem susceptible P. aeruginosa ATCC27853; read-out: MIC. The format is cell-based.

As for `C[C@@H](NC(=O)Cn1cnnn1)[C@H]1C(=O)N2C(C(=O)O)=C(S[C@@H]3CN[C@H](C(=O)N4CCC(CN)(CO)CC4)C3)[C@H](C)[C@H]12` [Example 463, (4R,5S,6R)-6-((R)-1-(2-(1H-tetrazol-1-yl)acetamido)ethyl)-3-((3S,5S)-5-(4-(aminomethyl)-4-(hydroxymethyl)piperidine-1-carbonyl)pyrrolidin-3-ylthio)-4-methyl-7-oxo-1-azabicyclo[3.2.0]hept-2-ene-2-carboxylic acid], the MIC was 0.5 µg/mL (≈ 0.845 µM) in test [1], 1 µg/mL (≈ 1.69 µM) in test [2], 4 µg/mL (≈ 6.76 µM) in test [3] and 2 µg/mL (≈ 3.38 µM) in test [4].

Take `CNCC(=O)N[C@H](C)[C@H]1C(=O)N2C(C(=O)O)=C(S[C@@H]3CN[C@H](CNS(=O)(=O)N4CCNCC4)C3)[C@H](C)[C@H]12` [Example 252]: the minimum inhibitory concentration (MIC) in test [1] was 2 µg/mL (≈ 3.57 µM); in test [2], 4 µg/mL (≈ 7.15 µM); in test [3] it was 16 µg/mL (≈ 28.6 µM); in test [4], 16 µg/mL (≈ 28.6 µM).

`CNCC(=O)N[C@H](C)[C@H]1C(=O)N2C(C(=O)O)=C(S[C@@H]3CN[C@H](CNC(=O)[C@@H]4CSCN4)C3)[C@H](C)[C@H]12` [Example 291]: the MIC is 2 µg/mL (≈ 3.8 µM) in test [1], 2 µg/mL (≈ 3.8 µM) in test [2], 32 µg/mL (≈ 60.8 µM) in test [3] and 8 µg/mL (≈ 15.2 µM) in test [4].

Turning to `C[C@@H](NC(=O)Cn1cnnn1)[C@H]1C(=O)N2C(C(=O)O)=C(S[C@@H]3CN[C@H](C(=O)N4CCC5CNCCC54)C3)[C@H](C)[C@H]12` (single isomer, unassigned) [Example 438], the minimum inhibitory concentration (MIC) in test [1] amounted to 0.25 µg/mL (≈ 0.436 µM); in test [2], 1 µg/mL (≈ 1.74 µM); in test [3], 2 µg/mL (≈ 3.49 µM); in test [4] it was 2 µg/mL (≈ 3.49 µM).

In the case of `C[C@@H](NC(=O)Cn1cnnn1)[C@H]1C(=O)N2C(C(=O)O)=C(S[C@@H]3CN[C@H](C(=O)N4C[C@H]5C[C@H](N)C[C@@]5(CO)C4)C3)[C@H](C)[C@H]12` [Example 526, (4R,5S,6R)-6-((R)-1-(2-(1H-tetrazol-1-yl)acetamido)ethyl)-3-((3S,5S)-5-((3aS,5S,6aS)-5-amino-3a-(hydroxymethyl)octahydrocyclopenta[c]pyrrole-2-carbonyl)pyrrolidin-3-ylthio)-4-methyl-7-oxo-1-azabicyclo[3.2.0]hept-2-ene-2-carboxylic acid], the minimal inhibitory concentration (MIC) in test [1] turned out to be 0.25 µg/mL (≈ 0.414 µM); in test [2], 2 µg/mL (≈ 3.31 µM); in test [3], 4 µg/mL (≈ 6.63 µM); in test [4], 1 µg/mL (≈ 1.66 µM).

With `C[C@@H](NC(=O)Cn1cnnn1)[C@H]1C(=O)N2C(C(=O)O)=C(S[C@@H]3CN[C@H](C(=O)N4CC[C@@H](NCCN)C4)C3)[C@H](C)[C@H]12` [Example 401, (4R,5S,6R)-6-((R)-1-(2-(1H-tetrazol-1-yl)acetamido)ethyl)-3-((3S,5S)-5-((R)-3-(2-aminoethylamino)pyrrolidine-1-carbonyl)pyrrolidin-3-ylthio)-4-methyl-7-oxo-1-azabicyclo[3.2.0]hept-2-ene-2-carboxylic acid], the minimal inhibitory concentration (MIC) worked out at 0.5 µg/mL (≈ 0.867 µM) in test [1], 2 µg/mL (≈ 3.47 µM) in test [2], 8 µg/mL (≈ 13.9 µM) in test [3] and 2 µg/mL (≈ 3.47 µM) in test [4].

Regarding `C[C@@H](NC(=O)Cn1cnnn1)[C@H]1C(=O)N2C(C(=O)O)=C(S[C@@H]3CN[C@H](C(=O)N4CC[N+](C)(CCN)CC4)C3)[C@H](C)[C@H]12.[I-]` [Example 375, 4-((2S,4S)-4-((4R,5S,6R)-6-((R)-1-(2-(1H-tetrazol-1-yl)acetamido)ethyl)-2-carboxy-4-methyl-7-oxo-1-azabicyclo[3.2.0]hept-2-en-3-ylthio)pyrrolidine-2-carbonyl)-1-(2-aminoethyl)-1-methylpiperazin-1-ium iodide], the MIC in test [1] was 2 µg/mL; in test [2], 8 µg/mL; in test [3], 16 µg/mL; in test [4] it was 4 µg/mL.

Consider `C[C@@H](NC(=O)Cn1cnnn1)[C@H]1C(=O)N2C(C(=O)O)=C(S[C@@H]3CN[C@H](C(=O)N4CC(N5CCNCC5)C4)C3)[C@H](C)[C@H]12` [Example 429, (4R,5S,6R)-6-((R)-1-(2-(1H-tetrazol-1-yl)acetamido)ethyl)-4-methyl-7-oxo-3-((3S,5S)-5-(3-(piperazin-1-yl)azetidine-1-carbonyl)pyrrolidin-3-ylthio)-1-azabicyclo[3.2.0]hept-2-ene-carboxylic acid], for which the MIC is 0.25 µg/mL (≈ 0.425 µM) in test [1], 2 µg/mL (≈ 3.4 µM) in test [2], 4 µg/mL (≈ 6.79 µM) in test [3] and 2 µg/mL (≈ 3.4 µM) in test [4].

With `C[C@@H](NC(=O)/C(=N\OC(C)(C)C(=O)O)c1csc(N)n1)[C@H]1C(=O)N2C(C(=O)O)=C(S[C@@H]3CN[C@H](C(=O)N4CC[C@@H](N)C4)C3)[C@H](C)[C@H]12` [Example 514, (4R,5S,6R)-3-((3S,5S)-5-((R)-3-aminopyrrolidine-1-carbonyl)pyrrolidin-3-ylthio)-6-((R)-1-((Z)-2-(2-aminothiazol-4-yl)-2-(2-carboxypropan-2-yloxyimino)acetamido)ethyl)-4-methyl-7-oxo-1-azabicyclo[3.2.0]hept-2-ene-2-carboxylic acid], the MIC in test [1] is 0.5 µg/mL (≈ 0.737 µM); in test [2], 16 µg/mL (≈ 23.6 µM); in test [3], 16 µg/mL (≈ 23.6 µM); in test [4], 32 µg/mL (≈ 47.1 µM).

Consider `C[C@@H](NC(=O)Cn1cnnn1)[C@H]1C(=O)N2C(C(=O)O)=C(S[C@@H]3CN[C@H](C(=O)N4CCC(N5CC(CN)C5)CC4)C3)[C@H](C)[C@H]12` [Example 343, (4R,5S,6R)-6-((R) - 1-(2-(1H-tetrazol-1-yl)acetamido)ethyl)-3-((3S,5S)-5-(4-(3-(aminomethyl)azetidin-1-yl)piperidine-1-carbonyl)pyrrolidin-3-ylthio)-4-methyl-7-oxo-1-azabicycio[3.2.0]hept-2-ene-2-carboxylic acid], for which the MIC in test [1] was 2 µg/mL (≈ 3.24 µM); in test [2] it was 8 µg/mL (≈ 13 µM); in test [3] it was 16 µg/mL (≈ 25.9 µM); in test [4], 8 µg/mL (≈ 13 µM).

As for `C[C@@H](NC(=O)Cn1cnnn1)[C@H]1C(=O)N2C(C(=O)O)=C(S[C@@H]3CN[C@H](C(=O)N4CC[N+](C)(CC(N)=O)CC4)C3)[C@H](C)[C@H]12.[I-]` [Example 363, 4-((2S,4S)-4-((4R,5S,6R)-6-((R)-1-(2-(1H-tetrazol-1-yl)acetamido)ethyl)-2-carboxy-4-methyl-7-oxo-1-azabicyclo[3.2.0]hept-2-en-3-ylthio)pyrrolidine-2-carbonyl)-1-(2-amino-2-oxoethyl)-1-methylpiperazin-1-ium iodide], the minimum inhibitory concentration (MIC) in test [1] is 0.25 µg/mL; in test [2] it was 2 µg/mL; in test [3], 4 µg/mL; in test [4] it was 1 µg/mL.

On to `C[C@H]([C@H]1C(=O)N2C(C(=O)O)=C(S[C@@H]3CN[C@H](C(=O)N(C)C)C3)[C@H](C)[C@H]12)n1cnnn1` [Example 319, (4R,5S,6S)-6-((R)-1-(1H-tetrazol-1-yl)ethyl)-3-((3S,5S)-5-(dimethylcarbamoyl)pyrrolidin-3-ylthio)-4-methyl-7-oxo-1-azabicyclo[3.2.0]hept-2-ene-2-carboxylic acid], for which the MIC in test [1] stood at 0.25 µg/mL (≈ 0.574 µM); in test [2] it was 1 µg/mL (≈ 2.3 µM); in test [3] it was 2 µg/mL (≈ 4.59 µM); in test [4], 32 µg/mL (≈ 73.5 µM).
